{"source": "ChEMBL document CHEMBL4052616", "about": "“Isoniazid derivatives and their anti-tubercular activity” (Eur J Med Chem, 2017)", "assay_type_in_all_cases": "functional", "key": {"[1]": {"system": "Mycobacterium tuberculosis", "test": "Antimycobacterial activity against Mycobacterium tuberculosis H37Rv after 10 to 12 days by serial dilution method"}, "[2]": {"system": "Mycobacterium kansasii", "test": "Antimycobacterial activity against Mycobacterium kansasii by serial dilution method"}, "[3]": {"system": "Mycobacterium avium", "test": "Antimycobacterial activity against Mycobacterium avium by serial dilution method"}, "[4]": {"system": "Mycobacterium intracellulare", "test": "Antimycobacterial activity against Mycobacterium intracellulare by serial dilution method"}, "[5]": {"system": "Mycolicibacterium fortuitum", "test": "Antimycobacterial activity against Mycobacterium fortuitum by serial dilution method"}, "[6]": {"system": "Mycolicibacterium smegmatis", "test": "Antimycobacterial activity against Mycobacterium smegmatis ATCC 607 by serial dilution method"}, "[7]": {"system": "Mycolicibacterium phlei", "test": "Antimycobacterial activity against Mycobacterium phlei by serial dilution method"}, "[8]": {"system": "Mycobacterium tuberculosis", "test": "Antitubercular activity against Mycobacterium tuberculosis H37Rv after 10 days by tube dilution method", "conditions": "240 h"}, "[9]": {"system": "Mycobacterium tuberculosis", "test": "Antimycobacterial activity against Mycobacterium tuberculosis H37Rv by NCCLS method"}, "[10]": {"system": "Mycobacterium tuberculosis", "test": "Potency index, ratio of pyrazinamide MIC to compound MIC for Mycobacterium tuberculosis H37Rv"}, "[11]": {"system": "Mycobacterium tuberculosis", "test": "Antimycobacterial activity against Bovin sensitive Mycobacterium tuberculosis measured after six weeks"}, "[12]": {"system": "Mycobacterium tuberculosis", "test": "Antimycobacterial activity against human sensitive Mycobacterium tuberculosis measured after six weeks"}, "[13]": {"system": "Mycobacterium tuberculosis", "test": "Antitubercular activity against Mycobacterium tuberculosis H37Rv"}, "[14]": {"system": "Mycobacterium tuberculosis", "test": "Antimycobacterial activity against Mycobacterium tuberculosis H37Rv after 5 days by microplate alamar blue assay", "conditions": "120 h"}, "[15]": {"system": "Mycobacterium tuberculosis", "test": "Antimycobacterial activity against Mycobacterium tuberculosis Erdman ATCC 35801 by broth dilution method"}, "[16]": {"system": "Mycobacterium tuberculosis", "test": "Potency index, ratio of isoniazid MIC to compound MIC for Mycobacterium tuberculosis clinical isolate 303"}, "[17]": {"system": "Mycobacterium tuberculosis", "test": "Antimycobacterial activity against Mycobacterium tuberculosis infected in C57BL/6 mouse assessed as reduction in colony forming units per lung at 100 mg/kg administered via gavage for 2 days measured last post dose"}, "[18]": {"system": "Mycobacterium tuberculosis", "test": "Antimycobacterial activity against Mycobacterium tuberculosis clinical isolate 303 by broth dilution method"}, "[19]": {"system": "Mycobacterium tuberculosis", "test": "Antimycobacterial activity against Mycobacterium tuberculosis clinical isolate 1889 by broth dilution method"}, "[20]": {"system": "Mycobacterium tuberculosis", "test": "Antimycobacterial activity against Mycobacterium tuberculosis clinical isolate 35829 by broth dilution method"}, "[21]": {"system": "Mycobacterium tuberculosis", "test": "Potency index, ratio of isoniazid MIC to compound MIC for Mycobacterium tuberculosis clinical isolate 1889"}, "[22]": {"system": "Mycobacterium tuberculosis", "test": "Potency index, ratio of isoniazid MIC to compound MIC for Mycobacterium tuberculosis clinical isolate 35829"}, "[23]": {"system": "Mycobacterium tuberculosis", "test": "Antimycobacterial activity against Mycobacterium tuberculosis H37Rv ATCC 27294 at < 0.1 ug/mL by microplate alamar blue assay"}}, "data": [{"smiles": "C=C1C[C@]23CC[C@@H]4[C@](C)(CCC[C@@]4(C)C(=O)O)[C@H]2CC[C@]1(O[C@@H]1O[C@H](CO)[C@@H](O)[C@H](O)[C@H]1O[C@@H]1O[C@H](CO)[C@@H](O)[C@H](O)[C@H]1O)C3", "values": [{"measurement": "MIC", "setting": "[1]", "result": "3.75 to 5", "unit": "µg/mL"}]}, {"smiles": "C[C@]12CC[C@@H](O)C[C@@H]1CC[C@@H]1[C@@H]2CC[C@]2(C)/C(=N/NC(=O)c3ccncc3)CC[C@@H]12", "values": [{"measurement": "MIC", "setting": "[2]", "result": "3.5 to 1000", "unit": "µg/mL"}, {"measurement": "MIC", "setting": "[3]", "result": "3.5 to 1000", "unit": "µg/mL"}, {"measurement": "MIC", "setting": "[4]", "result": "3.5 to 1000", "unit": "µg/mL"}, {"measurement": "MIC", "setting": "[5]", "result": "3.5 to 1000", "unit": "µg/mL"}, {"measurement": "MIC", "setting": "[6]", "result": "3.5 to 1000", "unit": "µg/mL"}, {"measurement": "MIC", "setting": "[7]", "result": "3.5 to 1000", "unit": "µg/mL"}]}, {"smiles": "O=C(NNc1nc(Cl)nc(NC(=O)c2cnccn2)n1)c1ccncc1", "values": [{"measurement": "MIC", "setting": "[8]", "result": 20, "unit": "µg/mL"}]}, {"smiles": "Cc1c(C(=O)NNC(=O)c2ccncc2)nn(-c2ccc(Cl)cc2Cl)c1-c1ccccc1", "values": [{"measurement": "MIC", "setting": "[9]", "result": 25, "unit": "µg/mL"}, {"measurement": "Ratio", "setting": "[10]", "result": 4}]}, {"smiles": "C=CCN1C(=O)/C(=N\\NC(=O)c2ccncc2)c2ccccc21", "values": [{"measurement": "MIC", "setting": "[11]", "result": "2.7 to 3.5", "unit": "µg/mL"}, {"measurement": "MIC", "setting": "[12]", "result": "2.7 to 3.5", "unit": "µg/mL"}]}, {"smiles": "O=C(NN1C(=O)C(Cl)C1c1cc2cc(Cl)ccc2nc1Cl)c1ccncc1", "note": "(stereo not drawn)", "values": [{"measurement": "MIC", "setting": "[13]", "result": 12.5, "unit": "µg/mL"}]}, {"smiles": "CCC(CO)Nc1nc(Cl)nc(NNC(=O)c2ccncc2)n1", "note": "(stereo not drawn)", "values": [{"measurement": "MIC", "setting": "[8]", "result": 20, "unit": "µg/mL"}]}, {"smiles": "O=C(NN1C(=O)C(Cl)C1c1ccc([N+](=O)[O-])cc1)c1ccncc1", "note": "(stereo not drawn)", "values": [{"measurement": "MIC", "setting": "[14]", "result": 5, "unit": "µg/mL"}]}, {"smiles": "Cc1c(C(=O)NNC(=O)c2ccncc2)nn(-c2ccc(Cl)cc2Cl)c1-c1ccc(Cl)cc1", "values": [{"measurement": "MIC", "setting": "[9]", "result": 12.5, "unit": "µg/mL"}, {"measurement": "Ratio", "setting": "[10]", "result": 2}]}, {"smiles": "COc1nc2ccc(Br)cc2cc1C1C(Cl)C(=O)N1NC(=O)c1ccncc1", "note": "(stereo not drawn)", "values": [{"measurement": "MIC", "setting": "[13]", "result": "3.12 to 6.25", "unit": "µg/mL"}]}, {"smiles": "Cc1ccc(C)n1NC(=O)c1ccccc1", "values": [{"measurement": "MIC", "setting": "[15]", "result": 3.2, "unit": "µg/mL"}, {"measurement": "Ratio", "setting": "[16]", "result": 2}, {"measurement": "Activity", "setting": "[17]", "result": 1.5, "unit": "log10CFU"}, {"measurement": "MIC", "setting": "[18]", "result": "4 to 8", "unit": "µg/mL"}, {"measurement": "MIC", "setting": "[19]", "result": "4 to 8", "unit": "µg/mL"}, {"measurement": "MIC", "setting": "[20]", "result": "4 to 8", "unit": "µg/mL"}, {"measurement": "Ratio", "setting": "[21]", "result": 2}, {"measurement": "Ratio", "setting": "[22]", "result": 2}]}, {"smiles": "C[C@]12CC[C@H]3[C@@](CC[C@@H]4[C@]3(C)CCC[C@@]4(C)C(=O)O)(C/C1=N/NC(=O)c1ccncc1)C2", "values": [{"measurement": "MIC", "setting": "[1]", "result": "10 to 20", "unit": "µg/mL"}]}, {"smiles": "COc1ccc(/C=C2\\SC(=O)N(CNNC(=O)c3ccncc3)C2=O)cc1", "values": [{"measurement": "MIC", "setting": "[13]", "result": "50 to 100", "unit": "µg/mL"}]}, {"smiles": "C[C@]12CC/C(=N\\NC(=O)c3ccncc3)C=C1CC[C@@H]1[C@@H]2CC[C@]2(C)/C(=N/NC(=O)c3ccncc3)CC[C@@H]12", "values": [{"measurement": "inhibition (INH)", "setting": "[23]", "result": ">95", "unit": "%"}]}, {"smiles": "COc1cc(C2SCC(=O)N2NC(=O)c2ccccc2)ccc1O", "note": "(stereo not drawn)", "values": [{"measurement": "MIC", "setting": "[14]", "result": 0.31, "unit": "µg/mL"}]}, {"smiles": "O=C(CNNC(=O)c1ccncc1)COc1ccc(/C=C2\\SC(=O)NC2=O)cc1", "values": [{"measurement": "MIC", "setting": "[13]", "result": "50 to 100", "unit": "µg/mL"}]}, {"smiles": "NC(=O)c1cnccn1", "note": "[PYRAZINAMIDE]", "values": [{"measurement": "MIC", "setting": "[1]", "result": 20, "unit": "µg/mL"}, {"measurement": "MIC", "setting": "[9]", "result": 50, "unit": "µg/mL"}]}, {"smiles": "C=C1C[C@]23CC[C@@H]4[C@](C)(CCC[C@@]4(C)C(=O)O[C@@H]4O[C@H](CO)[C@@H](O)[C@H](O)[C@H]4O)[C@H]2CC[C@]1(O[C@@H]1O[C@H](CO)[C@@H](O)[C@H](O)[C@H]1O[C@@H]1O[C@H](CO)[C@@H](O)[C@H](O)[C@H]1O)C3", "values": [{"measurement": "MIC", "setting": "[1]", "result": 7.5, "unit": "µg/mL"}]}, {"smiles": "COc1cc(C2C(Cl)C(=O)N2NC(=O)c2ccncc2)ccc1O", "note": "(stereo not drawn)", "values": [{"measurement": "MIC", "setting": "[14]", "result": 0.31, "unit": "µg/mL"}]}, {"smiles": "C=C1C[C@]23CC[C@@H]4[C@](C)(CCC[C@@]4(C)C(=O)NNc4cccnc4)[C@H]2CC[C@]1(O[C@@H]1O[C@H](COC(C)=O)[C@@H](OC(C)=O)[C@H](OC(C)=O)[C@H]1O[C@@H]1O[C@H](COC(C)=O)[C@@H](OC(C)=O)[C@H](OC(C)=O)[C@H]1O)C3", "values": [{"measurement": "MIC", "setting": "[1]", "result": 10, "unit": "µg/mL"}]}, {"smiles": "O=C(NNc1nc(Cl)nc(NNC(=O)c2ccncc2)n1)c1ccncc1", "values": [{"measurement": "MIC", "setting": "[8]", "result": 20, "unit": "µg/mL"}]}, {"smiles": "O=C(NN1C(=O)C(Cl)C1c1ccco1)c1ccncc1", "note": "(stereo not drawn)", "values": [{"measurement": "MIC", "setting": "[14]", "result": 1.25, "unit": "µg/mL"}]}]}
